Results as given in patent US10517889B2, “Modulators of SMAD7 expression” (Ionis Pharmaceuticals, Inc., priority 2017, dated 2019).
Strand notation (5' to 3'): a small letter for the sugar, then the base; units joined by * are phosphorothioate-linked, units joined directly phosphodiester-linked; [ ] holds rarer units or linkages, { } end groups; capitals alone tell only the bases. k = constrained ethyl (cEt); [5mC] = 5-methylcytosine; d = 2'-deoxy (DNA)

The substances below were run on human SMAD7 mRNA (assay: Antisense inhibition of human SMAD7 mRNA expression in Hep3B cells by 3-10-3 cEt gapmers, 10,000 nM, electroporation (Example 2)). Details: Hep3B cells, 10,000 nM antisense oligonucleotide, electroporation, approximately 24 hours, RT-PCR primer probe set RTS5062, relative to untreated control cells.
Format: cell-based
How it was run: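 Percent inhibition of SMAD7 mRNA, relative to untreated cells, after ~24 h exposure of electroporated Hep3B cells to 10,000 nM cEt gapmer; levels by qRT-PCR, corrected for total RNA.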

Row | Substance | % Inhibition [%]
1 | 799872 (kA*kA*kG*dT*dT*dA*dA*dT*d[5mC]*dA*dT*dT*dA*k[5mC]*kT*kT; antisense) [compound 799872] | 0
2 | 800018 (kA*kA*kA*dA*d[5mC]*dT*d[5mC]*dA*d[5mC]*dA*dG*dT*d[5mC]*k[5mC]*kT*kT; antisense) [compound 800018] | 51
3 | 799954 (antisense k[5mC]*kA*kG*dA*dA*dA*dA*dT*dG*d[5mC]*d[5mC]*d[5mC]*dA*k[5mC]*k[5mC]*kA) [compound 799954] | 42
4 | 798894 (kA*kG*k[5mC]*dA*d[5mC]*dT*dG*dG*d[5mC]*d[5mC]*d[5mC]*d[5mC]*dA*kG*k[5mC]*k[5mC]; antisense) [compound 798894] | 55

Same assay, conditions: Hep3B cells, electroporation with 10,000 nM antisense oligonucleotide, approximately 24 hours, RTS5062, percent inhibition of SMAD7 mRNA relative to untreated control cells

Row | Substance | % Inhibition [%]
5 | 799804 (kA*k[5mC]*kA*dG*dA*d[5mC]*dA*dG*dA*dG*dA*dA*dG*kG*kA*kT; antisense) [compound 799804] | 38

Same assay, conditions: Hep3B cells, electroporation with 10,000 nM antisense oligonucleotide, approximately 24 hours, SMAD7 mRNA by RT-PCR (RTS5062), relative to untreated control cells

Row | Substance | % Inhibition [%]
6 | 798716 (antisense k[5mC]*k[5mC]*kT*dG*d[5mC]*d[5mC]*d[5mC]*dG*dG*dG*d[5mC]*d[5mC]*dG*k[5mC]*k[5mC]*kG) [compound 798716] | 0
7 | 799432 (antisense kT*kG*kA*d[5mC]*dA*dG*d[5mC]*d[5mC]*dA*d[5mC]*dA*dA*dG*kT*k[5mC]*kA) [compound 799432] | 7
8 | 830082 (kG*kG*kT*dG*dT*dA*dT*dA*d[5mC]*d[5mC]*d[5mC]*dT*dG*k[5mC]*kA*k[5mC]; antisense) [compound 830082] | 34
9 | 798668 (kT*k[5mC]*k[5mC]*dG*dT*dG*dG*d[5mC]*dA*dT*dG*d[5mC]*dG*k[5mC]*k[5mC]*kA; antisense) [compound 798668] | 45
10 | 799389 (antisense kA*kA*kA*dA*d[5mC]*dG*d[5mC]*dA*dG*dG*dA*dG*dG*k[5mC]*kG*kG) [compound 799389] | 27
11 | 798865 (kG*kG*kA*dG*dT*d[5mC]*d[5mC]*dG*dG*dG*dT*dT*dG*kT*k[5mC]*k[5mC]; antisense) [compound 798865] | 8
12 | 799920 (antisense kG*kA*kT*dG*dA*dA*dT*dG*d[5mC]*dT*d[5mC]*d[5mC]*dT*kA*kA*kG) [compound 799920] | 0
13 | 798849 (k[5mC]*kA*kG*d[5mC]*d[5mC]*dG*dA*dT*dT*dT*dT*dG*d[5mC]*kT*k[5mC]*k[5mC]; antisense) [compound 798849] | 21
14 | 799241 (kA*kT*kT*d[5mC]*dT*d[5mC]*d[5mC]*dG*dT*dA*dT*dT*dT*kA*k[5mC]*kT; antisense) [compound 799241] | 16
15 | 830130 (antisense k[5mC]*k[5mC]*kA*d[5mC]*d[5mC]*dT*d[5mC]*d[5mC]*dG*dA*dG*dG*d[5mC]*kA*k[5mC]*k[5mC]) [compound 830130] | 32
16 | 830032 (antisense kG*k[5mC]*kT*dA*d[5mC]*d[5mC]*dT*dA*dA*dT*dG*dT*d[5mC]*kA*kA*k[5mC]) [compound 830032] | 35
17 | 798845 (k[5mC]*kG*k[5mC]*dA*d[5mC]*d[5mC]*dT*dT*d[5mC]*dT*dG*d[5mC]*dA*k[5mC]*k[5mC]*kA; antisense) [compound 798845] | 18
18 | 830209 (kA*k[5mC]*k[5mC]*dG*dG*dA*dA*dG*dT*d[5mC]*dT*dT*dG*kT*kA*kT; antisense) [compound 830209] | 31
19 | 799944 (antisense k[5mC]*kT*kG*d[5mC]*dA*dG*d[5mC]*dA*dA*dG*dA*dA*dG*kT*kG*kG) [compound 799944] | 5
20 | 798903 (kA*kA*kG*dA*dT*dG*dA*d[5mC]*d[5mC]*dT*d[5mC]*dT*dA*kG*k[5mC]*k[5mC]; antisense) [compound 798903] | 48
21 | 800102 (antisense kA*k[5mC]*kG*dA*dG*dA*d[5mC]*dA*dG*dA*dA*dA*dG*kA*kA*kG) [compound 800102] | 21
22 | 798720 (antisense kG*kG*k[5mC]*dA*dG*d[5mC]*dA*dT*d[5mC]*d[5mC]*dA*dG*d[5mC]*k[5mC]*k[5mC]*kT) [compound 798720] | 25

Same assay, conditions: Hep3B cells, electroporation with 10,000 nM antisense oligonucleotide, approximately 24 hours, primer probe set RTS5062, relative to untreated control cells

Row | Substance | % Inhibition [%] | % inhibition of SMAD7 mRNA expression [%]
23 | 799117 (antisense kG*k[5mC]*kT*dT*dA*dA*d[5mC]*dA*d[5mC]*dA*d[5mC]*dA*dG*kG*kA*kT) [compound 799117] | 46 | –
24 | 799104 (antisense kA*kG*kT*d[5mC]*d[5mC]*dG*dG*dG*dA*dA*dA*dA*dA*k[5mC]*k[5mC]*kT) [compound 799104] | – | 40
25 | 772559 (antisense kA*kG*k[5mC]*dG*dA*dG*dT*dA*dG*dG*dA*d[5mC]*dG*kA*kG*kG) [compound 772559] | – | 14
26 | 799495 (antisense k[5mC]*kT*kA*dA*d[5mC]*dA*dG*dG*dA*dA*dT*dA*dT*kA*k[5mC]*kA) [compound 799495] | – | 25
27 | 799478 (antisense k[5mC]*k[5mC]*k[5mC]*dT*dA*d[5mC]*d[5mC]*dA*d[5mC]*d[5mC]*d[5mC]*d[5mC]*dT*kG*kT*kG) [compound 799478] | – | 17
28 | 798946 (antisense kG*kA*kA*d[5mC]*dA*d[5mC]*dA*dA*dA*d[5mC]*dG*dA*dG*kG*kA*k[5mC]) [compound 798946] | – | 4
29 | 799113 (antisense kG*kA*kT*dG*dG*dG*dA*dG*d[5mC]*dA*dG*dG*d[5mC]*kA*kG*kT) [compound 799113] | 57 | –
30 | 799059 (antisense kA*k[5mC]*kT*dA*dG*d[5mC]*dA*dG*dG*d[5mC]*dT*d[5mC]*dG*k[5mC]*kT*kG) [compound 799059] | 18 | –
31 | 799235 (kG*kA*kA*dA*dA*dA*d[5mC]*dA*dT*dT*d[5mC]*dA*dG*k[5mC]*kT*kA; antisense) [compound 799235] | – | 24
32 | 798712 (antisense kG*k[5mC]*k[5mC]*dA*d[5mC]*d[5mC]*dG*dG*d[5mC]*d[5mC]*d[5mC]*d[5mC]*dA*kT*kG*k[5mC]) [compound 798712] | – | 6
33 | 799076 (antisense kA*kG*k[5mC]*dA*dG*dA*dT*dG*dG*d[5mC]*d[5mC]*dA*dA*kA*kA*kA) [compound 799076] | 34 | –
34 | 799024 (k[5mC]*kT*kT*dG*dG*dG*dA*d[5mC]*dT*dG*d[5mC]*dA*dA*kA*k[5mC]*k[5mC]; antisense) [compound 799024] | – | 0

Same assay, conditions: Hep3B cells, electroporation, 10,000 nM antisense oligonucleotide, approximately 24 hours, RTS5062, relative to untreated control cells

Row | Substance | % inhibition of SMAD7 mRNA expression [%]
35 | 799713 (antisense k[5mC]*kA*k[5mC]*dA*dA*dT*d[5mC]*dA*d[5mC]*dT*dG*dT*dT*k[5mC]*k[5mC]*kT) [compound 799713] | 0
36 | 799796 (k[5mC]*kA*kT*dT*dA*dG*dA*dT*dA*d[5mC]*dT*dG*dT*k[5mC]*kT*kT; antisense) [compound 799796] | 43
37 | 799638 (kA*kG*kT*d[5mC]*dA*dG*dG*d[5mC]*dA*d[5mC]*dA*dG*dA*k[5mC]*kT*kG; antisense) [compound 799638] | 53
38 | 799600 (kG*k[5mC]*kA*d[5mC]*d[5mC]*dA*dA*d[5mC]*dT*d[5mC]*dT*dG*dA*kA*k[5mC]*kG; antisense) [compound 799600] | 63

Same assay, conditions: SMAD7 mRNA, Hep3B cells, 10,000 nM antisense oligonucleotide, electroporation, approximately 24 hours, primer probe set RTS5062, relative to untreated control cells

Row | Substance | % Inhibition [%]
39 | 829723 (antisense kG*k[5mC]*kA*dT*dG*d[5mC]*dG*d[5mC]*d[5mC]*dA*dG*dT*d[5mC]*kT*k[5mC]*k[5mC]) [compound 829723] | 54
40 | 790537 (kA*kG*k[5mC]*dA*dG*d[5mC]*dA*dA*dA*dG*dT*dA*dG*kT*kT*kT; antisense) [compound 790537] | 27
41 | 829743 (antisense kA*k[5mC]*kG*d[5mC]*d[5mC]*dG*dG*dA*d[5mC]*dG*dA*dG*d[5mC]*kG*k[5mC]*kA) [compound 829743] | 25

Same assay, conditions: SMAD7 mRNA, Hep3B cells, electroporation with 10,000 nM antisense oligonucleotide, approximately 24 hours, primer probe set RTS5062, relative to untreated control cells

Row | Substance | % Inhibition [%]
42 | 829974 (kA*kA*kA*dA*dG*dA*dG*dG*d[5mC]*d[5mC]*dG*d[5mC]*d[5mC]*kT*kG*kG; antisense) [compound 829974] | 27
43 | 830007 (antisense k[5mC]*kT*kA*d[5mC]*dT*d[5mC]*dA*d[5mC]*d[5mC]*dA*dG*dT*dT*kG*kG*kT) [compound 830007] | 0
44 | 829965 (k[5mC]*kT*k[5mC]*dA*d[5mC]*d[5mC]*dT*dA*dG*dT*dT*d[5mC]*dG*k[5mC]*kA*kG; antisense) [compound 829965] | 0
45 | 829993 (kG*kG*k[5mC]*dA*dG*dG*dG*d[5mC]*d[5mC]*dG*d[5mC]*dG*dA*kG*kG*k[5mC]; antisense) [compound 829993] | 26
46 | 829929 (kA*k[5mC]*k[5mC]*dA*dA*dT*d[5mC]*dT*dT*dG*dT*dG*dT*kT*kT*kA; antisense) [compound 829929] | 19
47 | 829924 (k[5mC]*kT*k[5mC]*dA*dT*dT*dG*dA*dG*d[5mC]*dT*dA*dA*kG*kA*kA; antisense) [compound 829924] | 25
48 | 829960 (kA*kT*kT*dA*dT*dT*dA*dA*dT*dG*dG*dT*d[5mC]*kT*kG*k[5mC]; antisense) [compound 829960] | 17
49 | 829801 (kA*kG*kT*d[5mC]*dG*dG*d[5mC]*dT*dA*dA*dG*dG*dT*kG*kA*kT; antisense) [compound 829801] | 8
